# Legend:
# Aqueous solubility = assay type: physicochemical; conditions: limited evaluation to ≤ 10 μM
# HL-60 cell line = tested on: HL-60 cell line; set-up: method as in previously determined; conditions: ref previously determined, read-out: IC50, antiproliferative; cited from earlier work
# NVCM = experiment: Live-cell microscopy and mitochondrial membrane staining of NVCM; assay type: cell-based, rat; conditions: 10 µM + DAU 1.2 µM
# Experimental: Micrographs were obtained using an Eclipse TS100 inverted epifluorescence microscope (Nikon Corporation, Tokyo, Japan) and NIS-Elements AR 2.20 software (Laboratory Imaging s.r.o., Prague, Czech Republic). After treatment and incubation time corresponding to cytotoxicity/protection experiments (3 h preincubation with topobexin (9) [10 µM], 3 h co-incubation with topobexin (9) [10 µM] + DAU [1.2 µM], 45 h drug-free medium) NVCM were stained with 0.5 μM JC-1 probe (Molecular Probes/Thermo Fisher Scientific, USA) for 30 min at 37 °C or combination of 0.2 μM MitoTracker Red CMXRos (Molecular Probes/Thermo Fisher Scientific, USA) for 30 min and Hoechst 33342 for 10 min at 37 °C and then washed with a buffer (1.2 mM MgSO4 · 7H2O, 116 mM NaCl, 5.3 mM KCl, 1.13 mM NaH2PO4 · H2O, 20 mM HEPES).
# YFP-TOP2A = molecular target: T1, YFP-TOP2A (Homo sapiens, UniProt P11388); experiment: FRAP analysis, YFP-TOP2A in HEK293F cells; assay type: cell-based; conditions: 0.25 and 1 μM
# T1 construct: Using recombinant full-length human TOP2A and TOP2B enzymes; expressed in transfected cells; host or cells: HEK293F
# Experimental: HEK293F cells were transfected with DNA plasmids encoding yellow-fluorescent protein (YFP)-TOP2A or YFP-TOP2B (the same DNA constructs for mammalian protein expression and purification) using Lipofectamine 2000 (Thermo Fisher Scientific). Cells were cultured for 24 h post transfection and YFP signals were confirmed prior to FRAP experiments. Transfected cells were plated on glass-bottomed culture dishes (Matsunami) and rested overnight. The next day, each dish was pre-incubated with the indicated inhibitor treatment or DMSO control for 15 min prior to FRAP experiment. Each set of experiments was repeated on at least two different days using newly transfected cells each time. Live-cell imaging was done using a LSM 980 microscope (Carl Zeiss Microscopy, LLC). YFP signal was excited at 508 nm at 2% laser power and detected through a 516–604 nm range. A small area within the nucleus (purple box) is manually selected for fluorescence bleaching at 100% laser power for 50 iterations. Inhibition of TOP2 by obex inhibitors was detected by impairment in fluorescence recovery at 15 s post bleaching, as a lack of inhibition allows for TOP2 diffusion throughout the nucleus.
# T1 sequence (P11388 whole entry): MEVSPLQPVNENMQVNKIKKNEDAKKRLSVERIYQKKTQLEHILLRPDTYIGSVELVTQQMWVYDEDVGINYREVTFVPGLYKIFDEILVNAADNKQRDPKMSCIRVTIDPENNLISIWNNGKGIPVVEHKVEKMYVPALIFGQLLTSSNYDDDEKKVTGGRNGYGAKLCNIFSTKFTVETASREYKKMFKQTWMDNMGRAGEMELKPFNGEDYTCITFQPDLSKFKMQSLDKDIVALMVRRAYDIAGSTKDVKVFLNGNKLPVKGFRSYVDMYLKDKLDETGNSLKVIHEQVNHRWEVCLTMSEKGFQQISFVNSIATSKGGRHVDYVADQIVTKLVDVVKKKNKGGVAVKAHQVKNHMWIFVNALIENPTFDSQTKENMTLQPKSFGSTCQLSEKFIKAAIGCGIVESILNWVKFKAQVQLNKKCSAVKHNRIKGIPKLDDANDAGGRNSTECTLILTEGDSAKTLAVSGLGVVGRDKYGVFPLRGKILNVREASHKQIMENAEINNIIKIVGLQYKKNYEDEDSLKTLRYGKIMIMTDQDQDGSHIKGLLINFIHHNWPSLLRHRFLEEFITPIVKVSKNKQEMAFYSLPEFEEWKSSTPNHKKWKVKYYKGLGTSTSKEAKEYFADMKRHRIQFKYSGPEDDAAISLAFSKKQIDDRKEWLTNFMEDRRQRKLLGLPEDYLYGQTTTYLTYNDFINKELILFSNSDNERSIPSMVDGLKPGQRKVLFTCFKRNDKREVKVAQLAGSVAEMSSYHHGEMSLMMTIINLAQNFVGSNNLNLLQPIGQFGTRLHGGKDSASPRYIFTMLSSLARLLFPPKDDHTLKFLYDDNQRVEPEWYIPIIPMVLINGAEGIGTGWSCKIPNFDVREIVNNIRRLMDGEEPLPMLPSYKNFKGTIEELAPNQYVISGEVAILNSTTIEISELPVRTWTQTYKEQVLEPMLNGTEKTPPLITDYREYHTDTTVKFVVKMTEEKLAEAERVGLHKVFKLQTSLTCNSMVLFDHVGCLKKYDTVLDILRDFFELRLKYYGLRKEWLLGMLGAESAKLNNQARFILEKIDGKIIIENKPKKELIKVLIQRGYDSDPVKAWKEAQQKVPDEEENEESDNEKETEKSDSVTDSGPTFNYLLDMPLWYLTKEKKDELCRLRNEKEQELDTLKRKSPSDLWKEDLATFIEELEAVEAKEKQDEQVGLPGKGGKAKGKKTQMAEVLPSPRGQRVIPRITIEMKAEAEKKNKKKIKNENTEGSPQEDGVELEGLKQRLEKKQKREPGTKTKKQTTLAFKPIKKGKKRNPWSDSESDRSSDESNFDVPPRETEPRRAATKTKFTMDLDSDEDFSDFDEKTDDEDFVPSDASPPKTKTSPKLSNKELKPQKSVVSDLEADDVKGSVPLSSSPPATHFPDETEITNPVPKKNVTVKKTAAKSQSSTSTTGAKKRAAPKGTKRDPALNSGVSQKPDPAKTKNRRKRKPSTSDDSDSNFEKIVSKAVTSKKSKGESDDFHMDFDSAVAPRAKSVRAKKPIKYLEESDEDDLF
compound,measurement,setting,value
CCCc1cc(=O)oc2c(C(=O)N3CCCc4ccccc43)c(OC)cc(OC)c12 [BNS-22],solubility in aqueous environment,Aqueous solubility,poor solubility in aqueous environment
"COc1cccc2c1C(=O)c1c(O)c3c(c(O)c1C2=O)C[C@@](O)(C(C)=O)C[C@@H]3O[C@H]1C[C@H](N)[C@H](O)[C@H](C)O1 [DAU, daunorubicin, reference compound]",IC50,HL-60 cell line,15 nM
CCCc1cc(=O)oc2c(C(=O)N3CCCc4ccccc43)c(OCCN3CCN(C)CC3)ccc12 [topobexin (9)],DAU-induced changes in cardiomyocyte morphology and mitochondria,NVCM,reduced the distinct changes in cardiomyocyte morphology induced by DAU
same,mobility of TOP2A (FRAP),YFP-TOP2A,not affected

# Source: paper PMC12116762, “Topobexin targets the Topoisomerase II ATPase domain for beta isoform-selective inhibition and anthracycline cardioprotection” (Nature Communications, 2025)
